Measurements published in patent US20120128657A1, “SYNTHETIC MACROCYCLIC COMPOUNDS AND METHODS FOR TREATING CANCER” (priority 2007, published 2012).

What was measured:
[1] = test system: Bacillus subtilis (ATCC 49343); assay: Modified disc diffusion antimicrobial assay; assay type: cell-based; conditions: ATCC49343, B. subtilis, 50 μg/disk, 6 mm disks, 37° C., 18 hours
Description: Antimicrobial Assays Compounds were tested for antimicrobial activity against Escherichia coli (ATCC 8739) and Bacillus subtilis (ATCC 49343) and for antifungal activity against Candida albicans (ATCC 90027) using a modified disc diffusion assay. Briefly, agar plates seeded with suspensions of bacteria or fungi were prepared by adding 500 μL of a 24 h culture of bacteria to 100 mL of autoclaved Antibiotic Medium 2 (AB2) containing 1% agar and cooled to 55° C., or of fungi to Sabouraud Dextrose Agar (SDA) at 55° C. Seeded liquid agar (10 mL) was transferred immediately to square Petri dishes and allowed to cool for 1 h. Controls used for C. albicans, E. coli and B. subtilis included amphotericin B (25 μg), ampicillin (50 μg) and choloramphenicol (12.5 μg), respectively. Sterile disks (6 mm) containing control antibiotics or one of the macrocycles ([…]) were placed onto the agar and plates were incubated at 37° C. for 18 hours Inhibitory activity was measured by the zones of inhibition.

[2] = test system: 4T1 breast tumor cells; assay: In vitro wound-healing assay; assay type: cell-based, mouse; conditions: 4T1 cells, medium with 10% FBS, overnight incubation at 37° C.
Description: In vitro Wound-Healing Assay: 4T1 breast tumor cells in medium containing 10% fetal bovine serum (FBS) were seeded into wells of 24-multiwell plates (Becton-Dickinson). After they grew to confluence, wounds were made with sterile pipette tips. Cells were washed with Phosphate Buffered Saline (PBS) and refreshed with medium with or without 10% FBS. After overnight incubation at 37° C., cells were fixed and photographed according to protocols described by Yang, S, and Huang, X.-Y. J. Biol. Chem. 2005, 280, 27130-27137; and Shan, D.; Chen, L.; Njardarson, J. T.; Gaul, C.; Ma, X.; Danishefsky, S. J.; and Huang, X.-Y. Proc. Natl. Acad. Sci. U.S.A. 2005, 102, 3772-3776, both the Yang and Shan references are incorporated herein by reference.

[3] = test system: 4T1 breast tumor cells; assay: Chamber cell migration assay (Boyden chambers); assay type: cell-based; conditions: Mus musculus, 10% FBS in lower chamber, 4 h
Description: Chamber Cell Migration Assay: Cell migration was assayed in Boyden chambers [8.0 μm pore size polyethylene terephthalate membrane, FALCON cell culture insert (Becton-Dickinson)]. Cells were trypsinized and counted. 5-10×10^4 cells in serum free medium (300 μl) were added to the upper chamber and 500 μl of appropriate medium with 10% FBS were added to the lower chamber. Transwells were incubated for 4 h at 37° C. Cells on the inside of the transwell inserts were removed with a cotton swab, and cells on the underside of the insert were fixed and stained. Photographs of three random fields were taken and the number of cells counted to calculate the average number of cells that had transmigrated. Results in the form of IC50 values obtained from the chamber migration assay using 4T1 breast tumor cells for compounds 1-6 are presented in Table 1.

[4] = test system: 4T1 breast tumor cells; assay: Cell proliferation assay; assay type: cell-based, mouse; conditions: DMEM with 10% FBS, cells counted daily (FIG. 1)
Description: Cell Proliferation Assay: 4T1 breast tumor cells were trypsinized, resuspended in Dulbecco's Modified Eagle Medium (DMEM) with 10% FBS and counted. 5×10^4 cells were plated per well in a 6-well dish and grown in DMEM with 10% FBS. Each day of the assay, one well of each type of cell was trypsinized and the cells were counted.

| SMILES | IC50 ([3]; unit given in μM) [nM] | zone of inhibition at 50 µg/disc [1] [mm] | also measured |
| --- | --- | --- | --- |
| O=C1CC/C=C\CNC(=O)[C@]2(O)C[C@@H](O)[C@@H](O)[C@@H](C2)O1 [Compound 1] | – | 9 | closure of the wound (cell migration) [2]: prevented closure of the wound; IC50 ([3]; unit column prints nM): 77 ± 17 nM; 4T1 cell proliferation [4]: does not affect 4T1 cell proliferation |
| O=C1CC/C=C/CNC(=O)[C@]2(O)C[C@@H](O)[C@@H](O)[C@@H](C2)O1 [Compound 2] | > 250000 | – | – |
| CC(C)=CC(=O)O[C@@H]1C[C@]2(O)C[C@@H](OC(=O)CCCC/C=C\CNC2=O)[C@@H]1O [Compound 6] | – | – | IC50 ([3]; unit column prints nM): 550 ± 189 nM |
| CC1(C)S[C@@H]2[C@H](NC(=O)[C@H](N)c3ccccc3)C(=O)N2[C@H]1C(=O)O [ampicillin, reference compound] | – | 15 | – |

Further lines, with some results ahead:

| IC50 ([3]; unit given in μM) [nM] | SMILES | zone of inhibition at 50 µg/disc [1] [mm] | also measured |
| --- | --- | --- | --- |
| 525000 ± 163000 | O=C1CCCC/C=C\CNC(=O)[C@]2(O)C[C@@H](O)[C@@H](O)[C@@H](C2)O1 [Compound 3] | 8.5 | – |
| 12000 ± 2900 | O=C1CCCC/C=C/CNC(=O)[C@]2(O)C[C@@H](O)[C@@H](O)[C@@H](C2)O1 [Compound 4] | 7.5 | – |
| > 500000 | CC(C)(C)OC(=O)NC(Cc1ccccc1)C(=O)O[C@@H]1C[C@]2(O)C[C@@H](OC(=O)CCCC/C=C\CNC2=O)[C@@H]1O (stereo partly drawn) [Compound 5] | – | – |
